# The source made the active and inactive calls. No cut-off for these calls is given here.
# Tests used:
# [1] = Toxicity in ICR mouse assessed as change in spleen index at 10 to 40 mg/kg, ip treated for 3 days consecutively; format: organism-based; conditions: in vivo, 72 h, dose 10-40 mg/kg, time 3 day
# [2] = tested on: Escherichia coli; test: Antibacterial activity against Escherichia coli K88 infected in ICR mouse model of peritoneal sepsis assessed as reduction in blood IL-1beta level at 20 mg/kg, ip measured after 10 hrs; format: functional, organism-based
# [3] = tested on: Escherichia coli; test: Antibacterial activity against Escherichia coli K88 infected in ICR mouse model of peritoneal sepsis assessed as reduction in blood IL-6 level at 20 mg/kg, ip measured after 10 hrs; format: functional, organism-based
# [4] = Toxicity in ICR mouse assessed as change in serum ALT level at 10 to 40 mg/kg, ip treated for 3 days consecutively; format: organism-based; conditions: in vivo, 72 h, dose 10-40 mg/kg, time 3 day
# [5] = tested on: Escherichia coli; test: Disruption of membrane integrity in Escherichia coli K88 at 2 uM by PI staining based flow cytometry (reference value: 0.1 %); format: functional
# [6] = (§1) Binding affinity to 6xHis-tagged recombinant Escherichia coli TMK assessed as dissociation constant by BLI assay
# [7] = tested on: Escherichia coli; test: as §1
# [8] = Selectivity ratio of MIC for antibacterial activity against Escherichia coli 1515 to MIC for antibacterial activity against Escherichia coli K100; format: functional
# [9] = Selectivity ratio of MIC for antibacterial activity against Lactobacillus plantarum 8014 to MIC for antibacterial activity against Escherichia coli K90; format: functional
# [10] = Selectivity ratio of MIC for antibacterial activity against Enterococcus faecalis 29212 to MIC for antibacterial activity against Escherichia coli K95; format: functional
# [11] = tested on: Escherichia coli; test: Induction of outer membrane permeability in Escherichia coli K88 assessed as NPN leakage; format: functional, organism-based; conditions: dose 1-32 µM
# [12] = Toxicity in ICR mouse assessed as impaired mobility at 40 mg/kg, ip measured for 30 to 4 hrs; format: organism-based; conditions: in vivo, time 30-4 hrs
# [13] = tested on: Escherichia coli; test: Induction of ROS generation in Escherichia coli K88 assessed as increase in fluorescence intensity incubated for 1 hr by DCFH-DA dye based analysis; format: functional, organism-based
# [14] = Effect on secondary structure of compound in PBS assessed as formation of alpha-helical conformation at 100 uM by CD analysis; format: physicochemical; conditions: buffer
# [15] = tested on: Escherichia coli; test: Antibacterial activity against Escherichia coli K88 infected in ICR mouse model of peritoneal sepsis assessed as reduction in vacuolar degeneration of hepatocytes at 20 mg/kg, ip measured after 10 hrs by H and E staining based analysis; format: functional, organism-based
# [16] = tested on: Escherichia coli; test: Antibacterial activity against Escherichia coli K88 infected in ICR mouse model of peritoneal sepsis assessed as bacterial load reduction in kidney at 20 mg/kg, ip measured after 10 hrs; format: functional, organism-based
# [17] = Selectivity ratio of MIC for antibacterial activity against Salmonella typhimurium 7731 to MIC for antibacterial activity against Escherichia coli K98; format: functional
# [18] = Toxicity in ICR mouse assessed as change in serum TBIL level at 10 to 40 mg/kg, ip treated for 3 days consecutively; format: organism-based; conditions: in vivo, 72 h, dose 10-40 mg/kg, time 3 day
# [19] = tested on: Bacteria; test: Antibacterial activity against bacterial cells at 100 degreeC at 1 to 64 uM incubated for 60 mins; format: functional, organism-based; conditions: dose 1-64 µM
# [20] = tested on: Escherichia coli; test: Induction of morphological changes in Escherichia coli K88 assessed as cytoplasmic leakage at 2 uM incubated for 1 hr by TEM analysis; format: functional, organism-based
# [21] = tested on: Pseudomonas aeruginosa; test: Antibacterial activity against Pseudomonas aeruginosa PAO1 incubated for 12 to 18 hrs by microbroth dilution method; format: functional; conditions: time 12-18 hrs
# [22] = Selectivity ratio of MIC for antibacterial activity against Lactococcus lactis NZ9000 to MIC for antibacterial activity against Escherichia coli K88; format: functional
# [23] = tested on: Escherichia coli; test: Antibacterial activity against Escherichia coli K88 infected in ICR mouse model of peritoneal sepsis assessed as reduction in necrosis in renal tubular epithelial cells at 20 mg/kg, ip measured after 10 hrs by H and E staining based analysis; format: functional, organism-based
# [24] = Selectivity ratio of MIC for antibacterial activity against Staphylococcus epidermidis 12228 to MIC for antibacterial activity against Escherichia coli K91; format: functional
# [25] = tested on: Escherichia coli; test: Antibacterial activity against Escherichia coli K88 infected in ICR mouse model of peritoneal sepsis assessed as reduction in edema in renal tubular epithelial cells at 20 mg/kg, ip measured after 10 hrs by H and E staining based analysis; format: functional, organism-based
# [26] = tested on: Staphylococcus aureus; test: Antibacterial activity against Staphylococcus aureus 25923 incubated for 12 to 18 hrs by microbroth dilution method; format: functional; conditions: time 12-18 hrs
# [27] = Toxicity in ICR mouse assessed as change in serum CREA level at 10 to 40 mg/kg, ip treated for 3 days consecutively; format: organism-based; conditions: in vivo, 72 h, dose 10-40 mg/kg, time 3 day
# [28] = tested on: Bacteria; test: Antibacterial activity against bacterial cells at 1 to 128 uM in presence of CaCl; format: functional, organism-based; conditions: dose 1-128 µM
# [29] = Hydrophobicity of compound; format: physicochemical
# [30] = Toxicity in ICR mouse assessed as body weight change at 10 to 40 mg/kg, ip treated for 3 days consecutively; format: organism-based; conditions: in vivo, 72 h, dose 10-40 mg/kg, time 3 day
# [31] = tested on: Escherichia coli; test: Antibacterial activity against Escherichia coli K88 infected in ICR mouse model of peritoneal sepsis assessed as bacterial load reduction in spleen at 20 mg/kg, ip measured after 10 hrs; format: functional, organism-based
# [32] = Selectivity ratio of MIC for antibacterial activity against Staphylococcus aureus 29213 to MIC for antibacterial activity against Escherichia coli K94; format: functional
# [33] = tested on: Salmonella typhimurium; test: Antibacterial activity against Salmonella typhimurium 7731 incubated for 12 to 18 hrs by microbroth dilution method; format: functional, Salmonella enterica subsp. enterica serovar Typhimurium; conditions: Salmonella enterica, time 12-18 hrs
# [34] = tested on: Escherichia coli; test: Antibacterial activity against Escherichia coli K88 infected in ICR mouse model of peritoneal sepsis assessed as bacterial load reduction in liver at 20 mg/kg, ip measured after 10 hrs; format: functional, organism-based
# [35] = tested on: Escherichia coli; test: Antibacterial activity against Escherichia coli K88 infected in ICR mouse model of peritoneal sepsis assessed as reduction in granulocyte infiltration in lungs at 20 mg/kg, ip measured after 10 hrs by H and E staining based analysis; format: functional, organism-based
# [36] = Toxicity in ICR mouse assessed as change in kidney index at 10 to 40 mg/kg, ip treated for 3 days consecutively; format: organism-based; conditions: in vivo, 72 h, dose 10-40 mg/kg, time 3 day
# [37] = Antibacterial activity against Salmonella choleraesuis 21493 incubated for 12 to 18 hrs by microbroth dilution method; format: functional, Salmonella enterica subsp. enterica serovar Choleraesuis; conditions: Salmonella enterica, time 12-18 hrs
# [38] = tested on: Bacteria; test: Antibacterial activity against bacterial cells at pH 2 to 12; format: functional
# [39] = tested on: Escherichia coli; test: Inhibition of DNA migration in Escherichia coli K88 at 16 uM incubated for 40 mins by agarose gel electrophoresis.; format: functional, organism-based
# [40] = tested on: Bacteria; test: Antibacterial activity against bacterial cells at pH 2; format: functional
# [41] = tested on: Staphylococcus epidermidis; test: Antibacterial activity against Staphylococcus epidermidis 12228 incubated for 12 to 18 hrs by microbroth dilution method; format: functional; conditions: time 12-18 hrs
# [42] = Cytotoxicity against mouse RAW264.7 cells assessed as cell viability at 128 uM incubated for 4 hrs by MTT assay relative to control; format: toxicity, cell-based; conditions: read-out: Activity
# [43] = tested on: Escherichia coli; test: Antibacterial activity against Escherichia coli K88 incubated for 12 to 18 hrs by microbroth dilution method; format: functional; conditions: time 12-18 hrs
# [44] = Relative hydrophobic moment of compound; format: physicochemical
# [45] = Selectivity ratio of MIC for antibacterial activity against Pseudomonas aeruginosa PAO1 to MIC for antibacterial activity against Escherichia coli K97; format: functional
compound,measurement,setting,value
CC[C@@H](C)[C@H](NC(=O)CNC(=O)[C@@H]1CCCN1C(=O)[C@H](CCCCN)NC(=O)[C@H](Cc1c[nH]c2ccccc12)NC(=O)[C@@H](NC(=O)[C@H](CCCCN)NC(=O)[C@H](CCCCN)NC(=O)[C@H](Cc1c[nH]c2ccccc12)NC(=O)[C@H](Cc1ccc(O)cc1)NC(=O)[C@H](CCCCN)NC(=O)[C@@H](NC(=O)[C@H](CC(C)C)NC(=O)[C@H](CC(N)=O)NC(=O)CNC(=O)[C@@H](N)CO)[C@@H](C)O)[C@@H](C)CC)C(=O)N[C@@H](CCCCN)C(=O)N[C@@H](CCCCN)C(=O)N[C@@H](Cc1c[nH]c2ccccc12)C(=O)N[C@H](C(=O)N[C@@H](CCCCN)C(=O)O)[C@H](C)CC,Activity,[1],Non-toxic
same,Activity,[2],Active
same,Activity,[3],Active
same,Activity,[4],Non-toxic
same,Activity,[5],96.8%
same,Kd,[6],4.72 µM
same,Activity,[7],Dose-dependent-effect
same,Ratio,[8],>2
same,Ratio,[9],>2
same,Ratio,[10],>2
same,Activity,[11],Dose-dependent-effect
same,Activity,[12],Toxic
same,Activity,[13],Dose-dependent-effect
same,Activity,[14],Active
same,Activity,[15],Active
same,Activity,[16],Active; Activity Comparable To Colistin Treatment
same,Ratio,[17],>2
same,Activity,[18],Non-toxic
same,Activity,[19],Active
same,Activity,[20],Active
same,MIC,[21],4 µM
same,Ratio,[22],>2
same,Activity,[23],Active
same,Ratio,[24],>2
same,Activity,[25],Active
same,MIC,[26],128 µM
same,Activity,[27],Non-toxic
same,Activity,[28],inactive
same,Activity,[29],0.391
same,Activity,[30],Non-toxic
same,Activity,[31],Active; Activity Comparable To Colistin Treatment
same,Ratio,[32],>2
same,MIC,[33],4 µM
same,Activity,[34],Active; Activity Comparable To Colistin Treatment
same,Activity,[35],Active
same,Activity,[36],Non-toxic
same,MIC,[37],8 µM
same,MIC,[38],2 µM
same,inhibition,[39],Active
same,MIC,[40],4 µM
same,MIC,[41],128 µM
same,"viability at 4 h, 128 µM",[42],> 80%
same,MIC,[43],2 µM
same,Activity,[44],0.583
same,Ratio,[45],>2

# Source: ChEMBL document CHEMBL6103615, “Thymidylate Kinase-Targeted Antimicrobial Peptides via Phage Display: A Novel Strategy against Gram-Negative Bacteria” (J Med Chem, 2025)
